We go through six compounds from patent publication US7118872B2, “Binding polypeptides for B lymphocyte stimulator protein (BLyS)” (priority 2000, dated 2006).

For the experiment, the target named is BLyS (Homo sapiens, UniProt Q9Y275). The experiment in a line: Chromatographic screening of immobilized BLyS binding polypeptides (affinity media). The conditions noted are these: peptide immobilized on SEPHAROSE 4 Fast Flow. Here is the method: A reversed phase analytical assay was used in the assessment of the chromatographic performance of the six affinity media.
All columns were tested at 200 μl/min (170 cm/hr) using a Watson/Marlow 101 ru peristaltic pump. This setup allowed free use of numerous wash, protein and elution conditions. Detection was made using a Waters 2487 UV/VIS detector at 214 nm and 280 nm connected to a Waters Millennium workstation.
The columns were then tested with an array of possible elution conditions and monitored at 214 nm and 280 nm for release of BLyS. Fractions indicating possible BLyS elution based on UV absorbance were collected and analyzed by reversed phase chromatography for confirmation.

Positions of bridges follow the written chain, without caps; N, C: chain ends. Residues, ends and D or L forms follow the SMILES beside them. No end group written: not given here.

Sequence of BLyS (Q9Y275 134-285 limits assumed): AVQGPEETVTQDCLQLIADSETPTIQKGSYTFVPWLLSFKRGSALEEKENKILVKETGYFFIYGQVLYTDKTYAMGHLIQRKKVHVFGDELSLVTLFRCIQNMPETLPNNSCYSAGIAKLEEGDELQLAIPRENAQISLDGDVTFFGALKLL

Consider `CC(=O)N[C@@H](C)C(=O)NCC(=O)N[C@@H](CCCCN)C(=O)N[C@@H](CCC(=O)O)C(=O)N1CCC[C@H]1C(=O)N[C@H]1CSSC[C@@H](C(=O)N[C@@H](C)C(=O)N[C@H](C(=O)N[C@@H](CO)C(=O)NCC(=O)N2CCC[C@H]2C(=O)NCC(=O)N2CCC[C@H]2C(=O)N[C@@H](CCC(=O)O)C(=O)NCC(=O)NCC(=O)NCC(=O)N[C@@H](CCCCN)C(=O)O)C(C)C)NC(=O)[C@H](CCC(=O)O)NC(=O)[C@H](Cc2c[nH]c3ccccc23)NC(=O)[C@H](Cc2ccc(O)cc2)NC(=O)[C@H](Cc2ccccc2)NC(=O)[C@H](Cc2ccc(O)cc2)NC1=O` [DX212] (Ac-AGKEPCYFYWECAVSGPGPEGGGK-OH; disulfide 6-12; C-terminus assumed), for which the “release of BLyS from affinity media (elution condition)” value (shortened to “release of BLyS from affinity media”) was “released BLyS with good recoveries on elution with 50% ethylene glycol, pH 4”.

`CC(=O)N[C@@H](C)C(=O)NCC(=O)N[C@H](C(=O)N1CCC[C@H]1C(=O)N[C@@H](Cc1ccccc1)C(=O)N[C@H]1CSSC[C@@H](C(=O)N[C@@H](Cc2ccccc2)C(=O)N[C@@H](CCC(=O)O)C(=O)N[C@@H](C)C(=O)NCC(=O)N2CCC[C@H]2C(=O)NCC(=O)N2CCC[C@H]2C(=O)N[C@@H](CCC(=O)O)C(=O)NCC(=O)NCC(=O)NCC(=O)N[C@@H](CCCCN)C(=O)O)NC(=O)[C@H](Cc2c[nH]cn2)NC(=O)[C@H](CCCCN)NC(=O)[C@H]([C@@H](C)O)NC(=O)[C@H](CC(C)C)NC(=O)[C@H](CC(C)C)NC(=O)[C@H](CC(=O)O)NC1=O)C(C)C` [DX214] (Ac-AGVPFCDLLTKHCFEAGPGPEGGGK-OH; disulfide 6-13; C-terminus assumed): the “release of BLyS from affinity media” value is listed as “would only release BLyS in the presence of pH 2 buffer”.

On to `CSCC[C@@H]1NC(=O)[C@H](Cc2c[nH]cn2)NC(=O)[C@@H](NC(=O)[C@H](CC(C)C)NC(=O)[C@H](CCCNC(=N)N)NC(=O)[C@H](CO)NC(=O)[C@H](CO)NC(=O)CNC(C)=O)CSSC[C@@H](C(=O)N[C@H](C(=O)N[C@@H](Cc2c[nH]cn2)C(=O)N[C@@H](Cc2ccccc2)C(=O)N[C@@H](C)C(=O)N2CCC[C@H]2C(=O)N2CCC[C@H]2C(=O)NCC(=O)N2CCC[C@H]2C(=O)N[C@@H](CCC(=O)O)C(=O)NCC(=O)NCC(=O)NCC(=O)N[C@@H](CCCCN)C(=O)O)C(C)C)NC(=O)[C@H](C(C)C)NC(=O)[C@H](Cc2c[nH]cn2)NC(=O)[C@H]([C@@H](C)O)NC(=O)[C@H](CC(C)C)NC(=O)[C@H](CCC(=O)O)NC(=O)[C@H](CC(=O)O)NC1=O` [DX216] (Ac-GSSRLCHMDELTHVCVHFAPPGPEGGGK-OH; disulfide 6-15; C-terminus assumed), for which the “release of BLyS from affinity media” value is “would only release BLyS in the presence of pH 2 buffer”.

Consider `CSCC[C@H](NC(=O)[C@@H]1CSSC[C@H](NC(=O)[C@H](CC(N)=O)NC(=O)CNC(=O)CNC(=O)[C@H](CC(=O)O)NC(=O)CNC(C)=O)C(=O)N[C@@H](Cc2ccc(O)cc2)C(=O)N[C@@H]([C@@H](C)O)C(=O)N[C@@H](CC(=O)O)C(=O)N[C@@H](CO)C(=O)N[C@@H](CC(C)C)C(=O)N[C@@H]([C@@H](C)O)C(=O)N[C@@H](CCCCN)C(=O)N[C@@H](CC(C)C)C(=O)N[C@@H](Cc2c[nH]cn2)C(=O)N[C@@H](Cc2ccccc2)C(=O)N1)C(=O)NCC(=O)N[C@@H](CC(=O)O)C(=O)N[C@@H](CCC(=O)O)C(=O)N1CCC[C@H]1C(=O)NCC(=O)N1CCC[C@H]1C(=O)N[C@@H](CCC(=O)O)C(=O)NCC(=O)NCC(=O)NCC(=O)N[C@@H](CCCCN)C(=O)O` [DX217] (Ac-GDGGNCYTDSLTKLHFCMGDEPGPEGGGK-OH; disulfide 6-17; C-terminus assumed), for which the “release of BLyS from affinity media” value is reported as “would only release BLyS in the presence of pH 2 buffer”.

On to Ac-GYDVLTKLYFVPGGPGPEGGGK [DX219], for which the “release of BLyS from affinity media” value was “would only release BLyS in the presence of pH 2 buffer”.

Turning to Ac-WTDSLTGLWFPDGGPGPEGGGK [DX221], the “release of BLyS from affinity media” value is given as “would only release BLyS in the presence of pH 2 buffer”.
